Data on 22 molecules can be found in patent US9951088B2, “D2 receptor modulators and methods of use thereof in the treatment of diseases and disorders” (SUNOVION PHARMACEUTICALS INC., priority 2012, dated 2018).

Experiment [1] deals with T1, long isoform of human D2 receptor (Homo sapiens, UniProt P14416). Description: Arrestin Agonist Assay (DRD2L PathHunter CHO-K1 cells, β-arrestin recruitment). To be noted: for Emax: CHO-K1, read-out: β-arrestin (agonist mode) Emax. For orientation: Activated receptors often draw arrestin, which recruitment assays turn into a signal.
Experimental: (§1) Cell Lines: Activities of the compounds were assessed using a Chinese Hamster Ovary (CHO—K1) cell line that recombinantly expressed the long isoform of human D2 receptor (DRD2L PathHunter cells). The D2 receptor DNA sequence was modified to contain a “ProLink” at its C-terminus which allowed complementation with an “enzyme acceptor” (EA)-tagged β-arrestin protein. The recruitment of the O-arrestin by the D2 receptor led to complementation of the ProLink and EA and formation of active β-galactosidase which generated a D2-specific signal that was measured.
Arrestin Agonist Assay: One day prior to testing, a vial of high density stock of DRD2L PathHunter cells was thawed, and 1×10^7 cells diluted into 40 mL of growth media (Ham's F12/10% HI FBS/1% PSG). 20 μL cells per well were seeded directly into assay plates, and the plates were allowed to rest for 1 h at RT before incubating in a plate incubator overnight.
5 μL diluted compound was added to cells in each well, and the assay plate was incubated for 90 min at 37° C. 12.5 μL PathHunter detection reagent was added to each well of the assay plate, which was then covered and incubated for 1 h at RT. The plate was read on an Envision reader using the Luminescence protocol, and the data were exported for analysis.
(§2) The agonist Emax results were expressed as a percent of the dopamine control response ((measured specific response/control specific agonist response)×100) obtained in the presence of test article. The EC50 values (concentration producing a half-maximal specific response) were determined by non-linear regression analysis of the concentration-response curves.
Experiment [2] concerns the target T1, long isoform of human D2 receptor. Description: Arrestin Antagonist Assay (DRD2L PathHunter CHO-K1 cells, vs EC80 dopamine). To be noted: for Emax: CHO-K1, read-out: β-arrestin (antagonist mode) Imax.
Experimental: as §1
Arrestin Antagonist Assay: One day prior to testing, a vial of high density stock of DRD2L PathHunter cells was thawed, and 1×10^7 cells diluted into 40 mL of growth media (Ham's F12/10% HI FBS/1% PSG). 20 μL cells per well were seeded directly into assay plates, and the plates were allowed to rest for 1 h at RT before incubating in a plate incubator overnight.
The plate was incubated for 30 min at 37° C. 15 μL PathHunter detection reagent was added to each well of the assay plate, which was then covered and incubated for 1 h at RT. The plate was read on an Envision reader using the Luminescence protocol, and the data were exported for analysis.
The IC50 values (concentration producing a half-maximal inhibitory response) were determined by non-linear regression analysis of the concentration-response curves.
For experiment [3] the target is unchanged. Put plainly: cAMP HTRF Agonist Assay (DRD2L PathHunter CHO-K1 cells, forskolin-stimulated). To be noted: for Emax: CHO-K1, read-out: cAMP (agonist mode) Emax. Background: In TR-FRET formats the signal depends on donor and acceptor labels being close together.
Experimental: Cell Lines: Activities of the compounds were assessed using a Chinese Hamster Ovary (CHO—K1) cell line that recombinantly expressed the long isoform of human D2 receptor (DRD2L PathHunter cells). The D2 receptor DNA sequence was modified to contain a “ProLink” at its C-terminus which allowed complementation with an “enzyme acceptor” (EA)-tagged β-arrestin protein. The recruitment of the O-arrestin by the D2 receptor led to complementation of the ProLink and EA and formation of active β-galactosidase which generated a D2-specific signal that was measured. The cAMP assay was measured in the same D2-expressing cell line. The D2 receptor inhibited cAMP formation so that the basal levels of cAMP were increased by the addition of an adenylate cyclase stimulator, forskolin.
cAMP HTRF Agonist Assay: Two days prior to testing, a vial of high density stock of DRD2L PathHunter cells was thawed, and cells were diluted into 10 mL of growth media (Ham's F12/10% HI FBS/1% PSG) and used to seed a T225 flask containing 50 mL of growth media. Cells were cultured for 2 days.
On the day of the assay, cells were dissociated in 5 mL cell dissociation buffer (enzyme free—Invitrogen) for 10-15 minutes at 37° C. Dissociated cells were diluted with 10 mL of growth media and counted. Cell counts were routinely ˜2×10^7 per T225. Cells were then pelleted at 1500 rpm for 5 min. Supernatant was aspirated, and cells were re-suspended in HBSS/20 mM Hepes, pH 7.4 to a cell density of 1×10^6/mL.
cAMP levels were determined using the Cisbio HTRF method. HRTF reagents (cAMP-HTRF acceptor fluorophore (d2) conjugate and cryptate-labeled anti-cAMP antibody) were prepared according to maunfacturers instructions. 5 μL of each were added to each well of an assay plate and incubated for 1 h at RT. The plate was then read on an Envision reader using the HTRF protocol, and data were exported for analysis.
as §2

T1 sequence (P14416 whole entry, canonical isoform): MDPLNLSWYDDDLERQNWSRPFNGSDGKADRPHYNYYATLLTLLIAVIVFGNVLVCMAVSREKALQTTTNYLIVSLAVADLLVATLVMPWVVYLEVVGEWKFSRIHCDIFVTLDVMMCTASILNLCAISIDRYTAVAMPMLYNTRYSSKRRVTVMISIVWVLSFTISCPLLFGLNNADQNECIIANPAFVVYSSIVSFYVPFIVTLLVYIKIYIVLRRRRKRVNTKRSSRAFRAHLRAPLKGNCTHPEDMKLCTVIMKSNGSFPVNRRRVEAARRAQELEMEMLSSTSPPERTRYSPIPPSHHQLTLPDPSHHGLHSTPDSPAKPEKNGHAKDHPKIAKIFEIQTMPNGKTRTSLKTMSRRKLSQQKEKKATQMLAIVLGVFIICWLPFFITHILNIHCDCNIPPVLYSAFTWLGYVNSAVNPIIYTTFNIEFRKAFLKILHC

On to `Clc1ccccc1N1CCN(CCCCOc2ccc3cn[nH]c3c2)CC1` [Compound 97, 6-(4-(4-(2-chlorophenyl)piperazin-1-yl)butoxy)-1H-indazole], for which, in experiment [1], the EC50 (in general, the concentration needed to bring the measured effect to its halfway point) was less than 10 nM and the Emax lay within 10 to 25%. Moreover, in experiment [2], the IC50 (as a rule, the concentration at which inhibition is half-maximal) lay in the range of 10 to 100 nM and the Emax fell in the range of 50 to 75%. In addition, in experiment [3], the IC50 is less than 10 nM and the Emax lay within 50 to 75%.

As for `O=C1NCCc2ccc(OCCCCN3CCc4cc(Cl)ccc4C3)nc2N1` [Compound 85, 8-(4-(6-chloro-3,4-dihydroisoquinolin-2(1H)-yl)butoxy)-4,5-dihydro-1H-pyrido[2,3-d][1,3]diazepin-2(3H)-one], the half-maximal effective concentration (EC50) in experiment [1] was more than 10000 nM. Besides, the Emax in experiment [1] was less than 10%; in experiment [2] it was more than 75%; in experiment [3] it was less than 10%. Moreover, the IC50 in experiment [2] is 10 to 100 nM; in experiment [3], more than 10000 nM.

For `N#Cc1ccc2c(c1)CCN(CCCCOc1ccc3cccc(O)c3n1)C2` [Compound 15, 2-(4-((8-hydroxyquinolin-2-yl)oxy)butyl)-1,2,3,4-tetrahydroisoquinoline-6-carbonitrile], the EC50 in experiment [1] was more than 10000 nM. Further, the Emax in experiment [1] is less than 10%; in experiment [2], more than 75%; in experiment [3], less than 10%. Further, the half-inhibitory concentration (IC50) in experiment [2] was 1000 to 10000 nM; in experiment [3], more than 10000 nM.

On to `N#Cc1cccc2c1CCN(CCCCOc1ccc3c(n1)NC(=O)CC3)C2` [Compound 78, 2-(4-((7-oxo-5,6,7,8-tetrahydro-1,8-naphthyridin-2-yl)oxy)butyl)-1,2,3,4-tetrahydroisoquinoline-5-carbonitrile], for which, in experiment [1], the half-maximal effective concentration (EC50) was 10 to 100 nM and the Emax lay within 50 to 75%. In experiment [2], the half-maximal inhibitory concentration (IC50) was more than 10000 nM and the Emax was less than 10%. In experiment [3], the half-maximal inhibitory concentration (IC50) was in the range of 10 to 100 nM and the Emax was 50 to 75%.

In the case of `O=C1CCc2ccc(OCCCCN3CCc4c(Cl)cccc4C3)nc2N1` [Compound 76, 7-(4-(5-chloro-3,4-dihydroisoquinolin-2(1H)-yl)butoxy)-3,4-dihydro-1,8-naphthyridin-2(1H)-one], in experiment [1], the 50% effective concentration (EC50) is less than 10 nM. Moreover, the Emax in experiment [1] was more than 75%; in experiment [2], less than 10%; in experiment [3], more than 75%. In addition, the IC50 is more than 10000 nM in experiment [2] and less than 10 nM in experiment [3].

As to `CCC(=O)Nc1cccc(OCCCCN2CCc3ccccc3C2)n1` [Compound 41, N-(6-(4-(3,4-dihydroisoquinolin-2(1H)-yl)butoxy)pyridin-2-yl)-propionamide], in experiment [1], the EC50 was more than 10000 nM and the Emax was less than 10%. Further, in experiment [2], the IC50 was in the range of 100 to 1000 nM and the Emax was more than 75%. Moreover, in experiment [3], the IC50 is more than 10000 nM and the Emax is less than 10%.

Turning to `O=C1CCc2ccc(OCCCCN3CCc4cccc(C(F)(F)F)c4C3)nc2N1` [Compound 79, 7-(4-(8-(trifluoromethyl)-3,4-dihydroisoquinolin-2(1H)-yl)butoxy)-3,4-dihydro-1,8-naphthyridin-2(1H)-one], in experiment [1], the EC50 is more than 10000 nM and the Emax was less than 10%. Moreover, in experiment [2], the half-inhibitory concentration (IC50) fell in the range of 100 to 1000 nM and the Emax is more than 75%. In experiment [3], the IC50 was more than 10000 nM and the Emax is less than 10%.

For `COc1ccc(-n2cc3c(n2)CCN(CCCCOc2ccc4c(c2)NC(=O)CC4)C3)cc1` [Compound 39, 7-(4-(2-(4-methoxyphenyl)-6,7-dihydro-2H-pyrazolo[4,3-c]pyridin-5(4H)-yl)butoxy)-3,4-dihydroquinolin-2(1H)-one], in experiment [1], the 50% effective concentration (EC50) was more than 10000 nM. Moreover, the Emax is less than 10% in experiment [1], more than 75% in experiment [2] and less than 10% in experiment [3]. For the same molecule, the IC50 is 1000 to 10000 nM in experiment [2] and more than 10000 nM in experiment [3].

Consider `O=C1CCc2ccc(OCCCCN3CCc4c(cnn4-c4ccccc4)C3)cc2N1` [Compound 31, 7-(4-(1-phenyl-6,7-dihydro-1H-pyrazolo[4,3-c]pyridin-5(4H)-yl)butoxy)-3,4-dihydroquinolin-2(1H)-one], for which, in experiment [1], the 50% effective concentration (EC50) was less than 10 nM and the Emax was more than 75%. In experiment [2], the IC50 was more than 10000 nM and the Emax was less than 10%. In experiment [3], the half-maximal inhibitory concentration (IC50) is less than 10 nM and the Emax was more than 75%.

For the molecule `c1ccc2c(N3CCN(CCCCOc4ccc5cn[nH]c5n4)CC3)cccc2c1` [Compound 2, 6-(4-(4-(naphthalen-1-yl)piperazin-1-yl)butoxy)-1H-pyrazolo[3,4-b]pyridine], in experiment [1], the 50% effective concentration (EC50) is 10 to 100 nM and the Emax lay in the range of 10 to 25%. Also, in experiment [2], the IC50 is 100 to 1000 nM and the Emax was in the range of 50 to 75%. Moreover, in experiment [3], the IC50 lay within 10 to 100 nM and the Emax lay within 10 to 25%.

Regarding `O=C1CCc2ccc(OCCCCN3CCc4sccc4C3)cc2N1` [Compound 27, 7-(4-(6,7-dihydrothieno[3,2-c]pyridin-5(4H)-yl)butoxy)-3,4-dihydroquinolin-2(1H)-one], in experiment [1], the EC50 is more than 10000 nM. Moreover, the Emax was less than 10% in experiment [1], more than 75% in experiment [2] and 10 to 25% in experiment [3]. For the same molecule, the IC50 in experiment [2] is 10 to 100 nM; in experiment [3], less than 10 nM.

Consider `O=c1ccc2ccc(OCCCCN3CCc4nn(-c5ccccc5)cc4C3)nc2[nH]1` [Compound 66, 7-(4-(2-phenyl-6,7-dihydro-2H-pyrazolo[4,3-c]pyridin-5(4H)-yl)butoxy)-1,8-naphthyridin-2(1H)-one], for which, in experiment [1], the EC50 is more than 10000 nM and the Emax was less than 10%. For the same molecule, in experiment [2], the half-maximal inhibitory concentration (IC50) was 10 to 100 nM and the Emax was more than 75%. Moreover, in experiment [3], the IC50 was 10 to 100 nM and the Emax was in the range of 10 to 25%.

Turning to `CCOc1cccnc1N1CCN(CCCCOc2ccc3cccc(O)c3n2)CC1` [Compound 10, 2-(4-(4-(3-ethoxypyridin-2-yl)piperazin-1-yl)butoxy)quinolin-8-ol], in experiment [1], the half-maximal effective concentration (EC50) was less than 10 nM and the Emax fell in the range of 10 to 25%. Also, in experiment [2], the IC50 lay within 10 to 100 nM and the Emax is more than 75%. In experiment [3], the IC50 is less than 10 nM and the Emax lay in the range of 25 to 50%.

Regarding `Oc1cccc2ccc(OCCCCN3CCc4sccc4C3)nc12` [Compound 18, 2-(4-(6,7-dihydrothieno[3,2-c]pyridin-5(4H)-yl)butoxy)quinolin-8-ol], in experiment [1], the concentration giving a half-maximal response (EC50) is more than 10000 nM. The Emax in experiment [1] is less than 10%; in experiment [2] it was more than 75%; in experiment [3], less than 10%. Further, the values for the IC50 in experiment [2] and in experiment [3] were 1000 to 10000 nM and more than 10000 nM, respectively.

Regarding `O=c1ccc2ccc(OCCCCN3CCc4cc(F)ccc4C3)nc2[nH]1` [Compound 56, 7-(4-(6-fluoro-3,4-dihydroisoquinolin-2(1H)-yl)butoxy)-1,8-naphthyridin-2(1H)-one], the half-maximal effective concentration (EC50) in experiment [1] is more than 10000 nM. In addition, the Emax in experiment [1] is less than 10%; in experiment [2], more than 75%; in experiment [3], less than 10%. Moreover, the half-inhibitory concentration (IC50) in experiment [2] is less than 10 nM; in experiment [3], more than 10000 nM.

As to `CCS(=O)(=O)Nc1cccc(OCCCCN2CCc3ccccc3C2)n1` [Compound 43, N-(6-(4-(3,4-dihydroisoquinolin-2(1H)-yl)butoxy)pyridin-2-yl)-ethanesulfonamide], in experiment [1], the 50% effective concentration (EC50) was more than 10000 nM and the Emax is less than 10%. In experiment [2], the half-maximal inhibitory concentration (IC50) fell in the range of 100 to 1000 nM and the Emax is more than 75%. In experiment [3], the IC50 is more than 10000 nM and the Emax is less than 10%.

In experiment [1], `O=c1ccc2ccc(OCCCCN3CCc4ccsc4C3)nc2[nH]1` [Compound 54, 7-(4-(4,5-dihydrothieno[2,3-c]pyridin-6(7H)-yl)butoxy)-1,8-naphthyridin-2(1H)-one] displayed an EC50 of more than 10000 nM. The Emax is less than 10% in experiment [1], more than 75% in experiment [2] and less than 10% in experiment [3]. In addition, the IC50 in experiment [2] was less than 10 nM; in experiment [3], more than 10000 nM.

As for `O=C1NCCc2ccc(OCCCCN3CCc4sccc4C3)nc2N1` [Compound 86, 8-(4-(6,7-dihydrothieno[3,2-c]pyridin-5(4H)-yl)butoxy)-4,5-dihydro-1H-pyrido[2,3-d][1,3]diazepin-2(3H)-one], in experiment [1], the EC50 is more than 10000 nM and the Emax was less than 10%. In experiment [2], the 50% inhibitory concentration (IC50) was 10 to 100 nM and the Emax was more than 75%. In experiment [3], the IC50 was more than 10000 nM and the Emax was less than 10%.

On to `Oc1cccc2ccc(OCCCCN3CCc4cc(C(F)(F)F)ccc4C3)nc12` [Compound 17, 2-(4-(6-(trifluoromethyl)-3,4-dihydroisoquinolin-2(1H)-yl)butoxy)quinolin-8-ol], for which, in experiment [1], the 50% effective concentration (EC50) was more than 10000 nM and the Emax was less than 10%. Besides, in experiment [2], the IC50 lay within 1000 to 10000 nM and the Emax was more than 75%. For the same molecule, in experiment [3], the 50% inhibitory concentration (IC50) was more than 10000 nM and the Emax was less than 10%.

Regarding `Cc1cccc(N2CCN(CCCCOc3ccc4cn[nH]c4c3)CC2)c1C` [Compound 95, 6-(4-(4-(2,3-dimethylphenyl)piperazin-1-yl)butoxy)-1H-indazole], in experiment [1], the EC50 was more than 10000 nM. In addition, the results for the Emax in experiment [1], in experiment [2] and in experiment [3] were less than 10%, more than 75% and 10 to 25%, respectively. Besides, the concentration for half-maximal inhibition (IC50) in experiment [2] and in experiment [3] was 10 to 100 nM throughout.

In turn, `COc1cccnc1N1CCN(CCCCOc2cccc(-c3cc[nH]n3)n2)CC1` [Compound 47, 1-(4-((6-(1H-pyrazol-3-yl)pyridin-2-yl)oxy)butyl)-4-(3-methoxypyridin-2-yl)piperazine] showed an EC50 in experiment [1] of less than 10 nM. Further, the figures for the Emax in experiment [1], in experiment [2] and in experiment [3] were 10 to 25%, 50 to 75% and 50 to 75%, respectively. For the same molecule, the IC50 in experiment [2] and in experiment [3] was less than 10 nM throughout.

`O=C1CCc2ccc(OCCCCN3CCc4ncsc4C3)cc2N1` [Compound 26, 7-(4-(6,7-dihydrothiazolo[5,4-c]pyridin-5(4H)-yl)butoxy)-3,4-dihydroquinolin-2(1H)-one]: in experiment [1], the EC50 was less than 10 nM and the Emax was 10 to 25%. Further, in experiment [2], the 50% inhibitory concentration (IC50) is 1000 to 10000 nM and the Emax is more than 75%. Also, in experiment [3], the IC50 was in the range of 10 to 100 nM and the Emax is 25 to 50%.
